Results: patent publication US8513232B2, “Substituted spirocyclic piperidine derivatives as histamine-3 (H3) receptor ligands” (Cephalon, Inc., priority 2008, dated 2013)
Read-outs that look alike come from different tables or passages of the source.

Key:
[1] = biological target: T1, rat histamine H3 receptor (Rattus norvegicus, UniProt Q9QYN8); test: Rat H3 radioligand binding ([3H]-N-alpha-methylhistamine, SPA)
T1 construct: encoding the entire 445-amino-acid rat histamine H3 receptor; expressed in transfected cells; membrane preparation
T1 sequence (Q9QYN8 whole entry): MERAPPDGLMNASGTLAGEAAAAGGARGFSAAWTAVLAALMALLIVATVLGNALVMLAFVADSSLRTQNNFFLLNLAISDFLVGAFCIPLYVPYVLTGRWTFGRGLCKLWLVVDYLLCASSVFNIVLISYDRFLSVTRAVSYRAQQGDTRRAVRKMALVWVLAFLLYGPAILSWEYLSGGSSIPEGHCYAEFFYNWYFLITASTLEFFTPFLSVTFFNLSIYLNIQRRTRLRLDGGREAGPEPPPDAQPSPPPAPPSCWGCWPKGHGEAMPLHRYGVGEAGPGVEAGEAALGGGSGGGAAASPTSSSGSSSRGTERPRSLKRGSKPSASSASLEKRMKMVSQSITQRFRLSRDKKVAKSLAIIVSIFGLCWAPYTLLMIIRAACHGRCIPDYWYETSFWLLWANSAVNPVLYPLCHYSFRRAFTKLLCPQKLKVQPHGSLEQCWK
How it was run: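 SPA-bead binding assay using [3H]-N-alpha-methylhistamine (approximately 1 nM final) with test compounds from 0.01 nM to 30 μM. Rat H3 receptor membranes came from stably transfected CHO-A3 cells; incubation ran 4 h at room temperature, in the dark, in Tris pH 7.4 buffer with MgCl2 and BSA. Clobenpropit (10 μM) gave non-specific binding.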

[2] = biological target: T2, human H3 receptor (Homo sapiens, UniProt Q9Y5N1); test: Human H3 radioligand binding ([3H]-N-alpha-methylhistamine, SPA)
T2 construct: expressed in transfected cells
T2 sequence (Q9Y5N1 whole entry): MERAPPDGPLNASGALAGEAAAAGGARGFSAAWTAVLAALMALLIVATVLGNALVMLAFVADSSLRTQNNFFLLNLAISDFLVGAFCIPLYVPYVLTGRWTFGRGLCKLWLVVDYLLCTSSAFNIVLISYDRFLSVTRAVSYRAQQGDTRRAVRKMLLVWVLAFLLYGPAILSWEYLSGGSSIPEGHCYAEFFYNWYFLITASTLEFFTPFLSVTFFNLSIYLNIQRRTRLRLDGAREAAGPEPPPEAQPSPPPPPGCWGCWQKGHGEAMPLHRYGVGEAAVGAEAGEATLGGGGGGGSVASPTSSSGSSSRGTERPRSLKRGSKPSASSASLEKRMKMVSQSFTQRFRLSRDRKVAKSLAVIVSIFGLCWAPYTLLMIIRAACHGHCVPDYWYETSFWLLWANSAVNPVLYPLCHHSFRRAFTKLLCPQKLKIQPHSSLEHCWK
How it was run: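 Compounds (0.01 nM-30 μM) competed with approximately 1 nM [3H]-N-alpha-methylhistamine for human H3 receptor in membranes of stably transfected CHO cells, 10 μg protein per well, in Tris-HCl pH 7.4/MgCl2/BSA buffer for 4 h at room temperature. Bound radioligand measured by scintillation proximity; 10 μM clobenpropit gave non-specific binding.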

[3] = rat H3 binding, Table D, read-out: Rat H3 Ki
[4] = human H3 binding, Table D, read-out: Human H3 Ki
[5] = Table C, rat H3 binding, read-out: Rat H3 Ki
[6] = Table C, human H3 binding, read-out: Human H3 Ki
[7] = Table A, rat H3 binding, read-out: Rat Ki
[8] = Table A, human H3 binding, read-out: Human Ki
[9] = Rat H3 binding, Table B, Examples 136-362, read-out: rat H3 binding Ki
[10] = Human H3 binding, Table B, Examples 136-362, read-out: hum H3 binding Ki

Structure (SMILES) | Ki [1, 3] | melting point | Ki [2, 4] | Ki [1, 9] | Ki [2, 10] | further results
O=C(NCCO)c1ccc(-c2ccc3c(c2)COC2(CCN(C4CCC4)CC2)O3)cc1 [Example 50] |  | 185 to 187 °C |  |  |  | Ki [1, 7]: < 200 nM; Ki [2, 8]: < 200 nM
c1ccc(CN2CCN(c3ccc4c(c3)CCC3(CCN(C5CCC5)CC3)O4)CC2)cc1 [Example 365] |  | 292 to 293 °C |  |  |  | Ki [1, 5]: < 200 nM; Ki [2, 6]: < 200 nM
COc1cc(C(=O)Nc2ccc3c(c2)COC2(CCN(C4CCC4)CC2)O3)ccn1 [Example 267] |  | 175 to 176 °C |  | < 200 nM | < 200 nM | 
CNC(=O)N1CCN(c2ccc3c(c2)COC2(CCN(C4CCC4)CC2)O3)C(=O)C1 [Example 137] |  | 145 to 149 °C |  | 200 to 1000 nM | < 200 nM | 
c1cncc(Oc2ccc3c(c2)CCC2(CCN(C4CCC4)CC2)O3)c1 [Example 257] |  | 255 to 257 °C |  | < 200 nM | < 200 nM | 
O=C(Nc1ccccc1)Nc1ccc2c(c1)COC1(CCN(C3CCC3)CC1)O2 [Example 162] |  | 229 to 231 °C |  | < 200 nM | < 200 nM | 
O=C(Nc1ccc2c(c1)CCC1(CCN(C3CCC3)CC1)O2)c1ccns1 [Example 270] |  | 109 to 111 °C |  | < 200 nM | < 200 nM | 
Cc1nc(C)c(C(=O)Nc2ccc3c(c2)COC2(CCN(C4CCC4)CC2)O3)s1 [Example 308] |  | 174 to 175 °C |  | < 200 nM | < 200 nM | 
CNc1cc(C(=O)Nc2ccc3c(c2)COC2(CCN(C4CCC4)CC2)O3)ccn1 [Example 323] |  | 207 to 208 °C |  | < 200 nM | < 200 nM | 
CN(C)C(=O)c1ccc(-c2ccc3c(c2)COC2(CCN(C4CCC4)CC2)O3)cc1F [Example 40] |  | 172.9 to 173.5 °C |  |  |  | Ki [1, 7]: < 200 nM; Ki [2, 8]: < 200 nM
CNC(=O)c1ccc(Oc2ccc3c(c2)CCC2(CCN(C4CCC4)CC2)O3)cc1 [Example 282] |  | 179 to 181 °C |  | < 200 nM | < 200 nM | 
c1csc(CNc2ccc3c(c2)COC2(CCN(C4CCC4)CC2)O3)c1 [Example 344] |  | 112 to 113 °C |  | < 200 nM | < 200 nM | 

Continued, in another order:

Ki [1, 3] | melting point | Ki [2, 4] | Ki [1, 9] | Ki [2, 10] | Structure (SMILES) | further results
< 200 nM | 150.1 to 152.2 °C | < 200 nM |  |  | COCCNC(=O)CC1CCN(c2ccc3c(c2)COC2(CCN(C4CCC4)CC2)O3)CC1 [Example 588] | 
< 200 nM | 95 to 96 °C | < 200 nM |  |  | Cc1noc(COc2ccc3c(c2)CCC2(CCN(C4CCC4)CC2)O3)n1 [Example 616] | 
 | 135 to 137 °C |  |  |  | c1cc2c(cc1N1CCC3(CC1)OCCO3)CCC1(CCN(C3CCC3)CC1)O2 [Example 398] | Ki [1, 5]: < 200 nM; Ki [2, 6]: < 200 nM
 | 171 to 172 °C |  |  |  | c1ccc(N2CCN(c3ccc4c(c3)CCC3(CCN(C5CCC5)CC3)O4)CC2)nc1 [Example 368] | Ki [1, 5]: < 200 nM; Ki [2, 6]: < 200 nM
 | > 283 °C (dec.) |  |  |  | FC1(F)CCN(c2ccc3c(c2)CCC2(CCN(C4CCC4)CC2)O3)CC1 [Example 404] | Ki [1, 5]: < 200 nM; Ki [2, 6]: < 200 nM
< 200 nM | 71.2 to 73.6 °C | < 200 nM |  |  | O=c1c(Cl)c(-c2ccc3c(c2)COC2(CCN(C4CCC4)CC2)O3)ccn1CC(F)(F)F [Example 784] | 
 | 118 to 120 °C |  |  |  | c1cc2c(cc1N1CCC1)CCC1(CCN(C3CCC3)CC1)O2 [Example 438] | Ki [1, 5]: < 200 nM; Ki [2, 6]: < 200 nM
< 200 nM | 62.4 to 64.7 °C | < 200 nM |  |  | Cc1nnc(C2CCC(c3ccc4c(c3)COC3(CCN(C5CCC5)CC3)O4)CC2)o1 (stereo not drawn) [Example 707] | 
< 200 nM | 233 to 235 °C | < 200 nM |  |  | COc1ncc(-c2ccc3c(c2)COC2(CCN(C4CCC4)CC2)O3)c(C)c1C [Example 800] | 
> 1000 nM | 151 to 153 °C | > 1000 nM |  |  | COc1ccc(-c2ccc3c(c2)COC2(CCN(CC4CCOCC4)CC2)O3)cn1 [Example 716] | 
< 200 nM | 209 to 211 °C | < 200 nM |  |  | O=C(NC1CCOCC1)c1ccc(-c2ccc3c(c2)COC2(CCN(C4CCC4)CC2)O3)cc1Cl [Example 606] | 
< 200 nM | 212 to 214 °C | < 200 nM |  |  | COCc1cc(-c2ccc3c(c2)COC2(CCN(C4CCC4)CC2)O3)c[nH]c1=O [Example 805] | 
